Values of other authors, collected in patent US20060177499A1, “Method for the manufacture of a pharmaceutical composition in the form of tablets containing a fibrate and tablets obtained according to the method” (priority 2003, published 2006).

Settings: long-term treatment; e.g. rhabdomyolysis, asthenia, increase of transaminases, hepatic toxicity

For `CC(C)OC(=O)C(C)(C)Oc1ccc(C(=O)c2ccc(Cl)cc2)cc1` [fenofibrate, Isopropyl 2-[4-(4-chlorobenzoyl)phenoxy]-2-methylpropionate], the adverse effects is listed as “not completely devoid of adverse effects”.
